Patent publication USRE38132E1, “Phenylpyrrolidines, phenylimidazolidines,3-phenyl-1,3-oxizolidines and 3-phenyl-1,3-thiazolidines and their use in the treatment of inflammatory disease” (Boehringer Ingelheim Pharmaceuticals, Inc., priority 1997, dated 2003)

Tests used:
[1] = system: cell bound fibronectin receptor (VLA4) with fibronectin, SKW3 cells; assay: Inhibition of SKW3 cell binding to fibronectin (selectivity counter-assay); format: cell-based, human
Method in brief: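 Compound-treated, PMA-stimulated human T-cell line SKW3 (50 μg/mL PMA final) allowed to adhere for 2 h at 37° C to wells coated with sICAM-1 at 40 μg/mL or fibronectin at 100 μg/mL. After gentle RPMI wash, 50% inhibition concentration or range reported in μM.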

[2] = system: LFA-1 dependent aggregation of JY cells; assay: JY cell homotypic aggregation assay (PMA-stimulated); format: cell-based, human; details: Homo sapiens
Method in brief: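 Homotypic aggregation of EBV-transformed JY cells, stimulated by phorbol myristate acetate ([…]), scored visually over time in compound presence at 2·10^5 cells/well in serum-supplemented RPMI 1640. Result given as μM concentration or range inhibiting binding by 50%.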

[3] = system: allogeneic cell transplant response, popliteal lymph node; assay: In vivo allogeneic cell transplant model (popliteal lymph node weight); details: Mus musculus, po; mice, per os, dose at which 50% inhibition is observed; read-out: Allogeneic Cell Transplantation Assay ACT ED50
Text: In vivo: Allogeneic Cell Transplant Model Purpose of Assay: The ability of cells to recognize other cells from self or from another genetically different individual (non-self) is an important property in maintaining the integrity of tissue and organ structure. The allogeneic cell transplant response is an important model for studies of transplant rejection and immunocompetence. This T-cell-mediated immune response can be induced in adult mice by the injection of lymphocytes from a histoincompatible mouse strain into the footpad . This response is characterized by T-cell proliferation which is limited to the popliteal lymph node that receives drainage from the injected footpad area. No in vitro system can completely duplicate this in vivo response. Thus, this animal model can be used to assess the ability of a test compound to suppress transplant rejection. Description of Assay Protocol: Experiments are conducted using male or female mice (20-26 grams). Any histoincompatible mouse strains suffice for donor and recipient populations. Typically DBA mice are used as donors and […] mice are used as recipients. A minimum of 1 week stabilization and conditioning period is required before use during which time the animals are maintained in accordance with the Animal Resource Center S.O.P. Each study utilizes 36 recipient mice divided into groups of 6. The tests last approximately four days. Donor mice are sacrificed by CO2 asphyxiation and spleens are removed and made into a cell suspension. The cells (1.0·10^7/metatarsal in 0.05 mL) are injected intra dermal (according to standard protocol) into the dorsal metatarsal skin of recipient mice. Four days later, the animals are sacrificed by CO2 asphyxiation and the popliteal nodes are removed and weighed. Groups of mice receiving putative immunosuppressive agents are dosed subcutaneously, intraperitoneally or orally one hour prior to cell injection and daily thereafter according to standard protocol. Student's T-test was used to determine significant differences between popliteal lymph nodes of groups of untreated mice and those mice treated with putative immunosuppressive agents (see: Kroczek, R. A.; Black, C. D. V.; Barbet, […]. Immunology, 1987, 139, 3597). Data are reported as the dose at which 50% inhibition is observed and the manner in which the compound was administered. In Table 23, the following legends are applicable: ^and=not determined. ^bpercent inhibition at 160 μg/mL. ^cno inhibition observed up to highest dose. Exact quantification not always possible due to intrinsic toxicity of compound (see MTT result). ^[…] inhibition (concentration in μM ). ^eapproximated from incomplete dose-response curve. ^fnot determined; compound is a synthesis intermediate.

Row | Structure (SMILES) | Assay to Detect SKW3 Cells Binding to FIBRONECTIN IC50 ([1]; values marked c: no inhibition observed up to highest dose) | IC50 [2] | ED50 [3] | Cellular Toxicity Assay MTT LD50 (SKW3 cells) | IC50 ([1]; Homo sapiens, SKW3, values marked c: no inhibition observed up to highest dose, read-out: Assay to Detect SKW3 Cells Binding to FIBRONECTIN IC50)
1 | C[C@]1(Cc2ccc(Br)cc2)NC(=O)N(c2cc(Cl)cc(Cl)c2)C1=O [Example 29] | No inh^c | 100 nM | ~60 mg/kg | 63 to 125 µM | 
2 | CC(=O)N1C(=O)N(c2cc(Cl)cc(Cl)c2)C(=O)[C@@]1(C)Cc1ccc(Br)cc1 [Example 102] |  | 1300 nM | ~25 mg/kg | >400 µM | > 200000 nM
